Laboratory results from patent EP1626095A1, “Fluorescence-based kinetic determination of transglutaminase activity” (N-Zyme BioTec GmbH, priority 2004, dated 2006).
Where a SMILES comes first, the peptide text is derived from it. [ ]: non-standard residue; d: D form. The star is where a group is joined. X1 = O=[N+]([O-])c1ccc(NCCCCCN*)c([N+](=O)[O-])c1; 2Abz = Nc1ccccc1C(=O)O

Experiments:
[1] = molecular target: T1, gereinigte rekombinante humane Transglutaminase 2 (Homo sapiens, UniProt P21980); test: Selectivity test: fluorescence-based kinetic transglutaminase activity measurement (release of quencher from substrate peptide), Ansatz 2; assay type: biochemical; conditions: substrate peptide 50 µM; rhHis6TG2 0,25 µM; 6 % DMSO; Exc.: 310 nm Em.: 427 nm, 20 min
T1 construct: His6
T1 sequence (P21980 1-687): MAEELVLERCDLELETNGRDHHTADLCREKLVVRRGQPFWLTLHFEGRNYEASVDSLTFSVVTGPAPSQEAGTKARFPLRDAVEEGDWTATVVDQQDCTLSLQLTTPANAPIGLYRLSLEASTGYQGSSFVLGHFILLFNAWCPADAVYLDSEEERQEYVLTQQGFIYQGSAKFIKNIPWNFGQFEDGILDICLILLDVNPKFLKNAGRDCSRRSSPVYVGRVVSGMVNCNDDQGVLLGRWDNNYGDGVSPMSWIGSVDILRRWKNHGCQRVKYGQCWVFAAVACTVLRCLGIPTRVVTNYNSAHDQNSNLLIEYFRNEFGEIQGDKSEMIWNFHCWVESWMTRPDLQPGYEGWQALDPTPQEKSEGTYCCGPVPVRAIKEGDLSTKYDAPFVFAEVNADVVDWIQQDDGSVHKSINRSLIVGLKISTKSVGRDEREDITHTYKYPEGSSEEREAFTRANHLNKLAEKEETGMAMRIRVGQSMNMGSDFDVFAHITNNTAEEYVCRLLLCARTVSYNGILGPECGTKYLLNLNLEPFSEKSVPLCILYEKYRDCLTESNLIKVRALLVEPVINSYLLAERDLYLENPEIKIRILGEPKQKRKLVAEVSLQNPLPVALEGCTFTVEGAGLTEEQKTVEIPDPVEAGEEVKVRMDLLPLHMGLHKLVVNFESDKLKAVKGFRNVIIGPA
Description: (§1) Selektivität der Messungen verschiedener Transglutaminasen
2. Ansatz: Abz-Asn-Glu(CAD-DNP)-Glu-Gln-Val-Ser-Pro-Leu-Thr-Leu-Leu-Lys (2) Transglutaminase: gereinigte rekombinante humane Transglutaminase 2

Faktor XIII = molecular target: T2, Faktor XIII (Homo sapiens, UniProt P00488); test: Selectivity test: fluorescence-based kinetic transglutaminase activity measurement (release of quencher from substrate peptide), Ansatz 1; assay type: biochemical; conditions: substrate peptide 50 µM; Faktor XIII: 100 µl Citratplasma; 6 % DMSO; Exc.: 310 nm Em.: 427 nm, 20 min
T2 construct: 100 µl Citratplasma; from tissue; host or cells: citrate plasma
T2 sequence (P00488 39-732 limits assumed): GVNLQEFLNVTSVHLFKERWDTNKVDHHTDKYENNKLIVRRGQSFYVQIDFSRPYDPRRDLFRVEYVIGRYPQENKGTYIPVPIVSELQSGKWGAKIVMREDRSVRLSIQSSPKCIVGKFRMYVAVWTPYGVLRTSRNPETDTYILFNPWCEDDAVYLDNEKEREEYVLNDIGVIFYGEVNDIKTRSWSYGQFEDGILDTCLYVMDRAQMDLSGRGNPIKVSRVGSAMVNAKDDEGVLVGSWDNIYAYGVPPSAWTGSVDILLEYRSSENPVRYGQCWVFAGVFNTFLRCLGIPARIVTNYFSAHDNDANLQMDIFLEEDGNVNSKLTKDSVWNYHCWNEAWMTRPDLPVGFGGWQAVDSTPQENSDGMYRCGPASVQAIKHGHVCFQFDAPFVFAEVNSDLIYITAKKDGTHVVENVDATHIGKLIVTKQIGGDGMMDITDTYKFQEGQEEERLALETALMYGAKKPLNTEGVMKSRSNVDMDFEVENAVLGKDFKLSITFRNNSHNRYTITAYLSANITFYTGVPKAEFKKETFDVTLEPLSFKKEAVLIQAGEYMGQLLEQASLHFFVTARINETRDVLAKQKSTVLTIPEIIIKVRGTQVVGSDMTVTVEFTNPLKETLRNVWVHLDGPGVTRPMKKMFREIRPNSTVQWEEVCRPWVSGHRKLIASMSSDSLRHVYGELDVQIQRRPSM
Description: as §1
1. Ansatz: Substratpeptid: Abz-Ala-Pro-Glu(CAD-DNP)-Gln-Glu-Ala (3), Transglutaminase: Faktor XIII

| Compound | Ergebnis (Anstieg der Fluoreszenz) [1] | Ergebnis (Anstieg der Fluoreszenz) (Faktor XIII) |
| --- | --- | --- |
| 2-Aminobenzoyl-L-asparaginyl-N^δ-[N-(2,4-dinitrophenyl)1-5-aminopentyl]-L-glutaminyl-L-glutamyl-L-glutaminyl-L-valinyl-L-serinyl-L-prolinyl-L-leucinyl-L-threoninyl-L-leucinyl-L-leucin-L-lysin [Verbindung 2] | kein Anstieg der Fluoreszenz | – |
| C[C@H](NC(=O)[C@H](CCC(=O)O)NC(=O)[C@H](CCC(N)=O)NC(=O)[C@H](CCC(=O)NCCCCCNc1ccc([N+](=O)[O-])cc1[N+](=O)[O-])NC(=O)[C@@H]1CCCN1C(=O)[C@H](C)NC(=O)c1ccccc1N)C(=O)O [Verbindung 3] (H-[2Abz]APE(X1)QEA-OH) | – | Ergebnis: kein Anstieg der Fluoreszenz |
